In paper doi:10.1101/2021.01.13.426390v3 (biorxiv, 2021):

Target: T1, AGR3 (Homo sapiens, UniProt Q8TD06)
T1 sequence (Q8TD06 22-166): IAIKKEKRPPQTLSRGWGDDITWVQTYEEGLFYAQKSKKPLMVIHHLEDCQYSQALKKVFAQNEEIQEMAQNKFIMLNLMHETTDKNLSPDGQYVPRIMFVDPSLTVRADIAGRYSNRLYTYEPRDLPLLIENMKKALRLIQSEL
Experiment: biotin probe labelling, non-reducing SDS-PAGE, streptavidin-AP blot
Assay type: binding
Conditions: covalent; labelled compound; 30 uM probe, pH 7.4, 37 C

With O=C(CCCC[C@@H]1SC[C@@H]2NC(=O)N[C@@H]21)NCC(=O)N1C[C@@H]2CS(=O)(=O)SC[C@H]2C1 (racemic) [Biotin-GlyPyrDTDO] the “biotin probe labelling, non-reducing SDS-PAGE, streptavidin-AP blot” value was “it was also labeled by Biotin-GlyPyrDTDO”.
